{"source": "paper PMC7180728", "about": "“Novel Anthraquinone Compounds Inhibit Colon Cancer Cell Proliferation via the Reactive Oxygen Species/JNK Pathway” (Molecules, 2020)", "format_in_all_cases": "cell-based, human", "key": {"HCT116 cells": {"system": "HCT116 cells", "test": "MTT cell viability with or without SP600125", "settings": "8a alone, 24 h, compared with the control", "description": "Furthermore, to further investigate whether activation of phosphorylated JNK affects cell viability, HCT116 was co-treated with 8a and SP600125 (JNK inhibitor), and the effect of phosphorylated JNK inactivation on HCT116 cell activity was examined by MTT. […] Following co-treatment with 8a and SP600126, the rate cell viability was 55%. The inhibitory proliferation activty of 8a were partially weakened by the usage of 5 μM Sp600125.\nFigure 9 The effect of 8a treatment on phosphorylated JNK and JNK expression levels. (A) Western blot analysis of phosphorylated JNK and JNK expression levels of in HCT116 cells treated with 20 μg/mL 8a for time-periods; (B) The expression levels of the phospho-JNK proteins were determined after treatment of HCT116 cells with 20 μg/mL 8a with or without NAC. Data represent the mean ± standard deviation of three independent experiments; (C) Grayscale analysis of the relative protein level of phosphorylated JNK. Data represent the mean ± standard deviation of three independent experiments. * p < 0.05; (D) MTT assay of HCT116 cells viability following treatment with 8a and SP600125 for 24 h."}, "[1]": {"system": "intracellular ROS in HCT116 cells", "test": "Detection of ROS by DCFH-DA, flow cytometry", "settings": "compared to DMSO-treated control", "description": "Intracellular ROS are key factors in the activation of many signaling pathways, involved in a variety of biological functions including apoptosis and necrosis. High levels of ROS are capable of inducing tumor cell apoptosis. We evaluated the ability of the compounds to induce ROS by flow cytometric analysis of the fluorescent probe DCFH-DA. […] Next, we investigated ROS production before and after induction with 8a and NAC (N-acetyl-L-cysteine).\nCells were added to a 6-well plate (1 × 10^4/well) and incubated for 24 h to allow adherence. Set 0.1% DMSO as the control group, 8a as the treatment group, NAC as the treatment group, 8a + NAC as the treatment group. Among them, in the 8a + NAC treatment group, 8a was added after 5 mM NAC treatment for 1 h. Cells that had been treated for 24 h were collected. The cells were then washed three times with PBS and incubated with 10 μM DCFH-DA for 30 min in the dark. ROS levels were analyzed by flow cytometry."}, "[2]": {"system": "mitochondrial membrane potential of HCT116 cells", "test": "Mitochondrial membrane potential, JC-1 flow cytometry", "settings": "24 h", "description": "Decreased mitochondrial membrane potential is a hallmark of early cell apoptosis, and a decrease in mitochondrial membrane potential leads to the release of certain mitochondrial proteins, such as cytochrome c, which mediate apoptosis. Therefore, we examined changes in mitochondrial membrane potential by flow cytometry. HCT116 cells were treated with 8a (10 or 20 μg/mL) for 24 h and then stained with 2 μg/mL JC-1 for 30 min prior to flow cytometric analysis. Green /orange fluorescence ratio of JC-1, compare with control, is 200% and 494.4%, respectively (Figure 8E,F). […] During apoptosis, mitochondrial cytochrome C is released into the cytoplasm and triggers the activation cascade of caspase. HCT116 cells were collected after 8a treatment, cytoplasmic protein and mitochondrial protein were extracted. The levels of cytochrome c in the cytoplasm and mitochondria were detected by Western blotting. After treatment of HCT116 cells with 8a (10 or 20 μg/mL) for 24 h, cytoplasmic levels of cytochrome c increased, while the levels in the mitochondria decreased.\nThe 1×10^4 cells were treated with different concentrations of 8a for 24 h. Cells were then incubated with 500 μL JC-1 ([…]) for 30 min at 37 °C in the dark. The level of mitochondrial membrane potential depolarization was measured by flow cytometry. Data were analyzed using the Cell Quest program (BD, New York, The United States)."}, "[3]": {"system": "caspase 9, cleaved caspase 9, caspase 3, cleaved caspase 3", "test": "Western blot, caspases", "settings": "HCT116, western blot", "source_text": "Caspases represent a key molecular group in the regulation of apoptosis. In caspases, there is an upstream and downstream relationship between the initiator of apoptosis and executioner. Caspase 3 is one of the key executers of apoptosis, as it is either partially or totally responsible for the proteolytic cleavage of many key proteins. For example, when caspase 9 is activated, it activates caspase 3, which ultimately triggers cell apoptosis. After detecting the expression of the corresponding Bcl-2 family proteins after 8a treatment by western blotting, we went on to detect the expression levels of PARP, caspase 9, cleaved caspase 9, caspase 3, and cleaved caspase 3 proteins. […] After 24 h of treatment with zVAD-FMK, cell viability is 93%.\nThe expression of signaling pathway-related proteins was detected by western blot analysis. Cell (1 × 10^6) were plated in 90-mm dishes and treated with 8a for 24 h. The cells were treated with NAC in the same way as in step 4.7. Resuspend the cells in Buffer A (1 mM EDTA, 1 mM PMSF, 0.28 μg/mL apotinin, 50 μg/mL leupeptin, 7 μg/mL pepstain A) and transferred to a 1 mL glass homogenizer and pull up and down 30 times in an ice bath. Cells were collected and centrifuged (1000 g × 10 min, 4 °C). […] Protein concentrations in the supernatant were determined by using a Minbio BCA protein assay kit. […]"}}}
{"smiles": "CC(C)CC(NC(=O)c1ccc2c(c1[N+](=O)[O-])C(=O)c1ccccc1C2=O)C(=O)O", "note": "(stereo not shown) [Compound 8a, N-[(9,10-dihydro-1-nitro-9,10-dioxo-2-anthracenyl)carbonyl-leucine]]", "values": [{"measurement": "cell viability", "setting": "HCT116 cells", "value": 39, "unit": "%"}, {"measurement": "ROS levels (in words)", "setting": "[1]", "value": "increase ROS levels in a dose-dependent manner"}, {"measurement": "Green/orange fluorescence ratio of JC-1, compared with control", "setting": "[2]; 10 μg/mL", "value": 200, "unit": "%"}, {"measurement": "Green/orange fluorescence ratio of JC-1, compared with control", "setting": "[2]; 20 μg/mL", "value": 494.4, "unit": "%"}, {"measurement": "mitochondrial membrane potential (in words)", "setting": "[2]; 10 or 20 μg/mL", "value": "decreased the mitochondrial membrane potential in a dose-dependent manner"}, {"measurement": "expression of cleaved caspase 9 and cleaved caspase 3", "setting": "[3]", "value": "increased in a dose-dependent manner"}, {"measurement": "caspase 9 and caspase 3 expression levels", "setting": "[3]; with increasing 8a concentration", "value": "gradually decreased"}]}
